How the values were obtained:
[1] = Phase 1 study: safety and tolerability (adverse events, vital signs, ECG, laboratory tests, compliance) of oral ferric maltol; conditions: for Patients With an AE: Any AE: safety population
Description: This phase 1, randomized, open-label, parallel-group pharmacokinetic study involved children seen as outpatients at 6 centers in the UK: Alder Hey Children’s NHS Foundation Trust; King’s College Hospital NHS Foundation Trust; University Hospitals of Leicester NHS Trust; Nottingham University Hospitals NHS Trust; Manchester University NHS Foundation Trust; and University College London Hospitals NHS Foundation Trust. […] Children aged 16 years or older and parents or guardians of children younger than 16 years provided written informed consent to participate before study initiation.
Children aged 10–17 years with confirmed iron deficiency at screening (defined as either ferritin <30 µg/L or ferritin <50 µg/L with transferrin saturation [TSAT] <20%) were eligible for inclusion in the study. Patients with or without anemia could be enrolled, provided hemoglobin was ≥8.5 g/dL at screening. Girls of childbearing potential had to agree to use adequate contraception during and until 4 weeks after the end of the study.
The study comprised a screening period followed by a 10-day randomized treatment period and a post-treatment safety follow-up. Children were randomized 1:1:1 (stratified by age [10–14 vs 15–17 years] and sex) to ferric maltol 7.8 mg, 16.6 mg, or 30 mg twice daily (b.d.) for 9 days and once in the morning of day 10. The first and last doses of ferric maltol were taken in the presence of the investigator. Children took each dose with a glass of water 1 hour before or 2 hours after a meal. Doses were based on daily elemental iron requirements for the broad range of body weights of participants likely to be enrolled, with the aim of finding a minimum effective dose in this age group. The 30 mg b.d. adult dosage was chosen as the highest exposure; dosages of 16.6 mg b.d. and 7.8 mg b.d. were chosen as approximately one-half and one-quarter of the adult dose, respectively, with the exact dose depending on the full fill of available capsule shell sizes.
The primary objectives were to assess iron uptake and ferric maltol pharmacokinetics. Serum iron and TSAT provided measures of iron uptake. In adults, dissociated maltol undergoes rapid glucuronidation and is cleared in urine as maltol glucuronide (36); therefore, in this study, plasma maltol glucuronide was measured to confirm the rate of clearance in children. The secondary objective was to assess the safety and tolerability of ferric maltol in terms of vital signs, AEs, concomitant medications, 12-lead electrocardiograms, and clinical laboratory blood tests.
Safety analyses were conducted in all patients who received at least 1 dose of the study medication and had at least 1 subsequent visit (the safety population). […] Clinically significant changes from baseline in vital signs, physical examination, and routine clinical laboratory abnormalities were also recorded.

[2] = cited from earlier work
[3] = parameters: method as in PMID 34029682; conditions: patients with CKD, over 16 weeks; ref [35]; cited from earlier work

Structure (SMILES): Cc1occc(=O)c1[O-].Cc1occc(=O)c1[O-].Cc1occc(=O)c1[O-].[Fe+3] [Ferric maltol]
- Patients with a TEAE: Sneezing ([1]; 30 mg b.d. (n = 12)): 0 (0.0) n (%)
- Patients with a TEAE: Tonsillitis ([1]; 30 mg b.d. (n = 12)): 0 (0.0) n (%)
- Patients with a TEAE: Vomiting ([1]; 30 mg b.d. (n = 12)): 0 (0.0) n (%)
- TEAEs by system organ class: Cardiac disorders ([1]; 30 mg b.d. (n = 12)): 0 (0.0) n (%)
- TEAEs by system organ class: Gastrointestinal disorders ([1]; 30 mg b.d. (n = 12)): 6 (50.0) n (%)
- TEAEs by system organ class: General disorders and administration-site conditions ([1]; 30 mg b.d. (n = 12)): 2 (16.7) n (%)
- TEAEs by system organ class: Injury, poisoning, and procedural complications ([1]; 30 mg b.d. (n = 12)): 1 (8.3) n (%)
- TEAEs by system organ class: Neoplasms benign, malignant, and unspecified ([1]; 30 mg b.d. (n = 12)): 0 (0.0) n (%)
- TEAEs by system organ class: Nervous system disorders ([1]; 30 mg b.d. (n = 12)): 5 (41.7) n (%)
- TEAEs by system organ class: Respiratory, thoracic, and mediastinal disorders ([1]; 30 mg b.d. (n = 12)): 1 (8.3) n (%)
- TEAEs by system organ class: Skin and subcutaneous-tissue disorders ([1]; 30 mg b.d. (n = 12)): 1 (8.3) n (%)
- Patients With an AE: Any AE ([1]; 30 mg b.d. (n = 12)): 7 (58.3) n (%)
- Patients With an AE: Any SAE ([1]; Total, all doses (N = 37)): 0 (0.0) n (%)
- Patients With an AE: Any TEAE ([1]; Total, all doses (N = 37)): 20 (54.1) n (%)
- Patients With an AE: TEAE leading to study discontinuation ([1]; Total, all doses (N = 37)): 1 (2.7) n (%)
- Patients With an AE: TEAE related to study drug ([1]; Total, all doses (N = 37)): 9 (24.3) n (%)
- Patients with a TEAE: Abdominal distension ([1]; Total, all doses (N = 37)): 1 (2.7) n (%)
- Patients with a TEAE: Abdominal pain ([1]; Total, all doses (N = 37)): 1 (2.7) n (%)
- Patients with a TEAE: Anal incontinence ([1]; Total, all doses (N = 37)): 1 (2.7) n (%)
- Patients with a TEAE: Cellulitis ([1]; Total, all doses (N = 37)): 1 (2.7) n (%)
- Patients with a TEAE: Constipation ([1]; Total, all doses (N = 37)): 1 (2.7) n (%)
- Patients with a TEAE: Cough ([1]; Total, all doses (N = 37)): 2 (5.4) n (%)
- Patients with a TEAE: Diarrhea ([1]; Total, all doses (N = 37)): 3 (8.1) n (%)
- Patients with a TEAE: Dizziness ([1]; Total, all doses (N = 37)): 3 (8.1) n (%)
- Patients with a TEAE: Dyspepsia ([1]; Total, all doses (N = 37)): 1 (2.7) n (%)
- Patients with a TEAE: Dyspnea ([1]; Total, all doses (N = 37)): 1 (2.7) n (%)
- Patients with a TEAE: Fatigue ([1]; Total, all doses (N = 37)): 4 (10.8) n (%)
- Patients with a TEAE: Feces discolored ([1]; Total, all doses (N = 37)): 5 (13.5) n (%)
- Patients with a TEAE: Granuloma skin ([1]; Total, all doses (N = 37)): 1 (2.7) n (%)
- Patients with a TEAE: Headache ([1]; Total, all doses (N = 37)): 7 (18.9) n (%)
- Patients with a TEAE: Injection-site pain ([1]; Total, all doses (N = 37)): 1 (2.7) n (%)
- Patients with a TEAE: Lethargy ([1]; Total, all doses (N = 37)): 1 (2.7) n (%)
- Patients with a TEAE: Ligament sprain ([1]; Total, all doses (N = 37)): 1 (2.7) n (%)
- Patients with a TEAE: Lip dry ([1]; Total, all doses (N = 37)): 1 (2.7) n (%)
- Patients with a TEAE: Nasal congestion ([1]; Total, all doses (N = 37)): 1 (2.7) n (%)
- Patients with a TEAE: Nasopharyngitis ([1]; Total, all doses (N = 37)): 1 (2.7) n (%)
- Patients with a TEAE: Nausea ([1]; Total, all doses (N = 37)): 2 (5.4) n (%)
- Patients with a TEAE: Nevus hemorrhage ([1]; Total, all doses (N = 37)): 1 (2.7) n (%)
- Patients with a TEAE: Palpitations ([1]; Total, all doses (N = 37)): 1 (2.7) n (%)
- Patients with a TEAE: Papule ([1]; Total, all doses (N = 37)): 1 (2.7) n (%)
- Patients with a TEAE: Pyrexia ([1]; Total, all doses (N = 37)): 1 (2.7) n (%)
- Patients with a TEAE: Skin abrasion ([1]; Total, all doses (N = 37)): 1 (2.7) n (%)
- Patients with a TEAE: Sneezing ([1]; Total, all doses (N = 37)): 1 (2.7) n (%)
- Patients with a TEAE: Tonsillitis ([1]; Total, all doses (N = 37)): 1 (2.7) n (%)
- Patients with a TEAE: Vomiting ([1]; Total, all doses (N = 37)): 2 (5.4) n (%)
- TEAEs by system organ class: Cardiac disorders ([1]; Total, all doses (N = 37)): 1 (2.7) n (%)
- TEAEs by system organ class: Gastrointestinal disorders ([1]; Total, all doses (N = 37)): 12 (32.4) n (%)
- TEAEs by system organ class: General disorders and administration-site conditions ([1]; Total, all doses (N = 37)): 5 (13.5) n (%)
- TEAEs by system organ class: Injury, poisoning, and procedural complications ([1]; Total, all doses (N = 37)): 2 (5.4) n (%)
- TEAEs by system organ class: Neoplasms benign, malignant, and unspecified ([1]; Total, all doses (N = 37)): 1 (2.7) n (%)
- TEAEs by system organ class: Nervous system disorders ([1]; Total, all doses (N = 37)): 9 (24.3) n (%)
- TEAEs by system organ class: Respiratory, thoracic, and mediastinal disorders ([1]; Total, all doses (N = 37)): 4 (10.8) n (%)
- TEAEs by system organ class: Skin and subcutaneous-tissue disorders ([1]; Total, all doses (N = 37)): 2 (5.4) n (%)
- Patients With an AE: Any AE ([1]; Total, all doses (N = 37)): 21 (56.8) n (%)
- Changes from baseline in vital signs or 12-lead electrocardiogram results ([1]; all doses): No clinically meaningful changes
- Patients with laboratory abnormalities considered as TEAEs or SAEs ([1]; all doses): No patients
- Children who experienced a TEAE ([1]; all doses, N = 37): 54%
- Children with a TEAE related to the study drug ([1]; all doses, N = 37): 24%
- Deaths or SAEs ([1]; all doses, N = 37): no deaths or SAEs
- Drug-related TEAE anal incontinence ([1]; all doses, N = 37): 1 patient
- Drug-related TEAE constipation ([1]; all doses, N = 37): 1 patient
- Drug-related TEAE diarrhea ([1]; all doses, N = 37): 2 n
- Drug-related TEAE dizziness ([1]; all doses, N = 37): 2 n
- Drug-related TEAE dyspepsia ([1]; all doses, N = 37): 1 patient
- Drug-related TEAE dyspnea ([1]; all doses, N = 37): 1 patient
- Drug-related TEAE fatigue ([1]; all doses, N = 37): 2 n
- Drug-related TEAE feces discoloration ([1]; all doses, N = 37): 5 n
- Drug-related TEAE headache ([1]; all doses, N = 37): 3 n
- Drug-related TEAE lethargy ([1]; all doses, N = 37): 1 patient
- Drug-related TEAE nausea ([1]; all doses, N = 37): 1 patient
- Drug-related TEAE palpitations ([1]; all doses, N = 37): 1 patient
- Drug-related TEAE papule ([1]; all doses, N = 37): 1 patient
- Gastrointestinal TEAEs, overall ([1]; all doses, N = 37): 32%
- Nervous system disorders TEAEs, overall ([1]; all doses, N = 37): 24%
- TEAE abdominal distension, number of children ([1]; all doses, N = 37): 1 n
- TEAE abdominal pain, number of children ([1]; all doses, N = 37): 1 n
- TEAE anal incontinence, number of children ([1]; all doses, N = 37): 1 n
- TEAE constipation, number of children ([1]; all doses, N = 37): 1 n
- TEAE diarrhea, number of children ([1]; all doses, N = 37): 3 n
- TEAE dizziness, number of children ([1]; all doses, N = 37): 3 n
- TEAE dyspepsia, number of children ([1]; all doses, N = 37): 1 n
- TEAE fecal discoloration, number of children ([1]; all doses, N = 37): 5 n
- TEAE headache, number of children ([1]; all doses, N = 37): 7 n
- TEAE lethargy, number of children ([1]; all doses, N = 37): 1 n
- TEAE nausea, number of children ([1]; all doses, N = 37): 2 n
- TEAE vomiting, number of children ([1]; all doses, N = 37): 2 n
- Children who experienced a TEAE ([1]; all doses, N = 37, listed as ferric maltol): 54.1%
- Severity of TEAEs ([1]; all doses, all recovered or resolved): mild or moderate
- Hemoglobin concentrations versus placebo ([2]; patients with IBD, over 12 weeks, ref [19]): significantly increased hemoglobin concentrations compared with placebo
- Incidence of gastrointestinal TEAEs ([2]; phase 3 trial in adults with IBD, ref [19],[20]): 38%
- Hemoglobin and iron indices [3]: statistical and clinically significant increases in hemoglobin and iron indices

— article PMC10191551, “Safety, Tolerability, and Pharmacokinetics of Oral Ferric Maltol in Children With Iron Deficiency: Phase 1 Study” (JPGN Reports, 2021)
